# Reference: patent publication US10188629B2, “Prodrug of green tea epigallocatechin-3-gallate (pro-EGCG) for use in the treatment of endometriosis” (The Hong Kong Polytechnic University, priority 2012, dated 2019)
# Entries after “also recorded” stand apart in the source; their conditions may differ.
# Assays:
# Assay type in all cases: in vivo, mice
# [1] = test system: endometriotic lesions (experimental endometriosis); assay: Growth of luminescent endometriotic lesions monitored weekly by IVIS bioluminescence imaging; conditions: for lesion bioluminescence relative to baseline levels / lesion bioluminescence intensity compared with saline group: i.p. once per day, 4 weeks, EGCG, pro-EGCG 50 mg/kg; for lesion bioluminescence intensity compared with saline group: vitamin E 20 mg/kg
# Source text: Based on our previous study, an immune-compromised mouse model of experimental endometriosis was created by subcutaneous transplantation of human or mouse tissues to assess the anti-angiogenic effects and mechanisms of green tea catechin (Xu H, et al. Hum Reprod 2009; 24:608-18; Xu H, et al. Fertil Steril 2011; 96:1021-8).
# (§1) In this study, endometrial tissues from eight-week-old female CMV-Luc mice (n=15) were acquired for transplantation into nonluminescent NOD-SCID mice (n=32). The mouse endometrium was obtained during the proliferating estrous stage, and biopsies 2 mm in diameter were obtained with a sterile dermal biopsy punch (Miltex, NY). The biopsies were immediately washed in prewarmed, phenol-red-free DMEM/F-12 medium (Sigma) to remove residual blood and mucus, and the samples were maintained in serum-free DMEM/F-12 medium before transplantation (Bruner-Tran K L, et al. J Clin Endocrinol Metab 2009; 94:2489-94). Cultured endometrial biopsies were randomly allocated for transplantation.
# (§2) Five mouse endometrial biopsies per treatment group were implanted into a single subcutaneous pocket created is the abdominal wall of the mice along the ventral midline immediately below the umbilicus. All of the surgical procedures were performed under general anesthesia with isoflurane (Baxter, IL), and the mice were monitored until they fully recovered.
# Development and angiogenesis of the experimental endometriosis were monitored using various in vivo imaging systems. During the intervention, growth of the endometriotic lesions (n=8 per group) was monitored each week by measuring the bioluminescence of the subcutaneous luciferase-positive implants using a non-invasive IVIS 200 live animal imaging system (Xenogen) as previously described (Song C, et al. Hum Gene Ther, 2011; 22:439-49). A total of 150 mg/kg of luciferin was injected intraperitoneally […] 10 mins prior to imaging. An image from each animal was captured at bin size 4 in triplicate, and the bioluminescence signal intensities were averaged for comparison.
# [2] = Oxygen radical absorbance capacity (ORAC) in plasma and lesions; conditions: for ORAC in endometriotic lesions compared between treatment groups / ORAC in endometriotic lesions compared to saline group: lesions after intervention; for ORAC in plasma compared between treatment groups / ORAC in plasma compared to saline group: plasma during intervention
# Source text: (§3) Pharmacokinetics of EGCG and pro-EGCG in the animals were studied by measuring the corresponding EGCG and pro-EGCG concentrations (EGCG in the EGCG group, pro-EGCG in the pro-EGCG group) in plasma during the intervention and also in lesions at the end of intervention. EGCG and pro-EGCG were quantified by analytical methods as previously described (Lam W H, et al. Bioorg Med Chem. 2004; 510:69-93; Chu K O, et al. J Chromat B 2004; 810:187-95; Chu K O, et al. Anal Chim Acta 2004; 510:69-76). Anti-oxidative and anti-angiogenesis capacities of the samples were also studied by measuring oxygen radical absorbance capacity (ORAC) using a modified phycoerythrin fluorescence decay assay as previously described (Wang C C, et al. Clin Chem 2004; 50:952-4), and vascular endothelial growth factor (VEGF) concentrations were measured using a commercial ELISA kit (Uscn Life Science Inc., TX) according to the manufacturer's manual. Blood samples (n=8 per group) were collected from the tail vein once per week, and plasma was prepared by immediate centrifugation. Implants without subcutaneous and muscle layers (n=4 per group) were removed from the abdominal wall, and the endometriotic lesions were frozen. All of the samples were kept in −80° C. prior to analysis.
# [3] = test system: endometriotic lesions (experimental endometriosis); assay: Lesion size, weight and histology at end of intervention; conditions: for lesion size compared to control group / lesion weight compared to control group / development and histology of the endometriotic lesions: after 4 weeks i.p. once per day; for lesion size compared to control group / lesion weight compared to control group: EGCG, pro-EGCG 50 mg/kg, vitamin E 20 mg/kg; for development and histology of the endometriotic lesions: microscopic examination
# Source text: as §1, §2
# At the end of intervention, size of the endometriotic lesions was determined as the longest length and perpendicular width according to a venire caliper and was calculated as 0.52×width^2×length in mm^3. The endometrial implants, together with subcutaneous and muscle layers, were removed from the abdomen wall for detailed histological examination and specific staining analysis.
# Paraffin sections (n=4 per group) were prepared for standard hematoxylin and eosin (H&E) staining, angiogenesis immunostaining and TUNEL staining as previously described (Xu H, et al. Hum Reprod 2009; 24:608-18.). Immunohistochemistry staining of in situ angiogenesis was performed by the immunoperoxidase method using a MACH 3 HRP Polymer Kit (Biocare Medical, Concord), and counterstained using methyl green or blue solution.
# [4] = test system: vascular endothelial growth factor (VEGF); assay: VEGF concentrations in plasma and lesions by ELISA
# Source text: as §3
# [5] = test system: apoptotic cells in the endometriotic lesions; assay: Apoptosis in endometriotic lesions by Cellvizio YO-PRO-1 imaging and TUNEL staining; conditions: after 4 weeks
# Method: At the end of intervention, functional angiogenesis of the endometriotic lesions (n=8 per group) was monitored by measuring the flow of fluorescence dye in the new microvessels developed in the implants using a Cellvizio® LAB LSU-488 system with a ProFlex Microprobe S1500 (Mauna Kea Technologies, Paris) as previously described (Xu H, et al. Fertil Steril 2011; 96:1021-8.). A total of 10 mg/ml of FITC-Dextran was injected intravenously into each mouse prior to imaging. Total vessel length (μm) and area (μm^2) and functional capillary length (μm^−1) and area density were measured using Cellvizio® LAB Vessel Detection software, and averaged from 4 perpendicular regions of the lesions in replicates. At the same time, apoptotic cells in the lesions were captured by Cellvizio-LAB 488 with a ProFlex MiniO/100 microprobe using Cellvizio® LAB I/C Viewer software (Mauna Kea Technologies). A total of 10 μl of 10 μM YO-PRO®-1 iodide in DSMO was injected into the lesion area.
# The total number of apoptotic cells was counted and averaged from the 4 perpendicular regions of the lesions in replicates as described above. Both IVIS and Cellvizio imaging procedures were performed under general anesthesia with isoflurane (Baxter, Ill.), and the mice were observed until fully recovered.
# TUNEL labeling for in situ apoptotic cells was performed using an ApopTag Peroxidase In Situ Apoptosis Detection Kit (Temecula, Calif.) according to the manufacturer's instructions. The total numbers of TUNEL-positive stained cells were counted. The mean numbers of apoptotic cells were calculated from 5 separated sections from each animal within the treatment group and are presented as numbers per lesion as above. […] Each section was evaluated by both examiners, who were blinded to the experimental groups and results.
# [6] = after 4 weeks, 50 mg/kg i.p. once per day
SMILES,lesion bioluminescence relative to baseline levels [1],lesion bioluminescence intensity compared with saline group [1],ORAC in endometriotic lesions compared between treatment groups [2],ORAC in endometriotic lesions compared to saline group [2],ORAC in plasma compared between treatment groups [2],ORAC in plasma compared to saline group [2],lesion size compared to control group [3],lesion weight compared to control group [3],development and histology of the endometriotic lesions [3],VEGF concentrations in endometriotic lesions compared to saline group ([4]; lesions after intervention),VEGF concentrations in plasma compared to saline group ([4]; plasma during intervention),total apoptotic cell numbers in the lesions compared to saline group [5],"lesion bioluminescence intensity compared with EGCG group ([1]; 50 mg/kg i.p. once per day, 2nd, 3rd and 4th weeks)","lesion size compared with EGCG-treated mice [3, 6]","lesion weight compared with EGCG-treated mice [3, 6]",VEGF concentrations in endometriotic lesions compared with EGCG group ([4]; lesions after intervention),VEGF concentrations in plasma compared with EGCG group ([4]; plasma during intervention),apoptotic cell numbers in the lesions compared with EGCG group [5]
"O=C(O[C@@H]1Cc2c(O)cc(O)cc2O[C@@H]1c1cc(O)c(O)c(O)c1)c1cc(O)c(O)c(O)c1 [EGCG, (−)-epigallocatechin-3-gallate]",maintained around the baseline levels,"significantly lower than that of the saline group at the 2nd, 3rd and 4th weeks",not significantly different from the vitamin E group,significantly increased,not significantly different from the vitamin E group,significantly increased,significantly decreased,significantly decreased,poorly developed; also recorded: small and loosely attached to the adjacent tissues,significantly decreased,significantly decreased,significantly increased,,,,,,
"CC(=O)Oc1cc(OC(C)=O)c2c(c1)O[C@H](c1cc(OC(C)=O)c(OC(C)=O)c(OC(C)=O)c1)[C@H](OC(=O)c1cc(OC(C)=O)c(OC(C)=O)c(OC(C)=O)c1)C2 [pro-EGCG, (−)-EGCG octaacetate]",decreased further below the baseline levels,"significantly lower than that of both the saline group and the EGCG group at the 2nd, 3rd and 4th weeks",significantly higher than in the EGCG and vitamin E groups,significantly increased,significantly higher than in the EGCG and vitamin E groups,significantly increased,significantly decreased,significantly decreased,poorly developed; also recorded: degraded and almost detached from the peritoneal muscle layers,significantly decreased,significantly decreased,significantly increased,"significantly lower than that of both the saline group and the EGCG group at the 2nd, 3rd and 4th weeks",significantly smaller,lighter,significantly lower than those in the EGCG group,significantly lower than those in the EGCG group,significantly higher than the number in the EGCG group
